# Results taken from ChEMBL document CHEMBL5030535, “Conjugates Derived from Lapatinib Derivatives with Cancer Cell Stemness Inhibitors Effectively Reversed Drug Resistance in Triple-Negative Breast Cancer” (J Med Chem, 2021).
# Activity calls are given as the source filed them. The rule behind the calls is not given here.
# Key:
# MDA-MB-231 [1] = test: Inhibition of Wnt/beta-Catenin signaling in drug-tolerant human MDA-MB-231/lapatinib cells assessed as reduction in beta-catenin level at 20 uM incubated for 24 hrs by Western blot analysis
# HUVEC = test: Antiproliferative activity against human HUVEC cells assessed as inhibition of cell growth in measured after 72 hrs by MTT assay; type: cell-based
# [2] = molecular target: T1, Aldehyde dehydrogenase 1A1 (Homo sapiens, UniProt P00352); test: Inhibition of ALDH1A1 in human drug-tolerant MDA-MB-231/lapatinib cells assessed as after 24 hrs
# T1 sequence (P00352 whole entry): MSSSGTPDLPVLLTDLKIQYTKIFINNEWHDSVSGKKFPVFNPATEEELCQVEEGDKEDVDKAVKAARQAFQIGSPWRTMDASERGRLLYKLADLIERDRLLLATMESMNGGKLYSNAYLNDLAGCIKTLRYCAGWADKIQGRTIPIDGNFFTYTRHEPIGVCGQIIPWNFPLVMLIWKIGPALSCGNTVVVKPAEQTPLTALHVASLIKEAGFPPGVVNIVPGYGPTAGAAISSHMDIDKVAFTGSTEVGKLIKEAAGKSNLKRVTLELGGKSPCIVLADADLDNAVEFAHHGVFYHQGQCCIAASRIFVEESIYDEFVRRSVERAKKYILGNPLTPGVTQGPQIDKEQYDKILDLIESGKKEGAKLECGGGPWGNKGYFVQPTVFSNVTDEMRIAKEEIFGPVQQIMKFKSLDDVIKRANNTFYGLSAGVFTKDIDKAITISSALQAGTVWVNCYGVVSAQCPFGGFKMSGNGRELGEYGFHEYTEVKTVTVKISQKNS
# MDA-MB-231 [3] = test: Inhibition of cell stemness in drug-tolerant human MDA-MB-231/lapatinib cells assessed as inhibition of Notch expression at 20 uM after 24 hrs by flow cytometry; type: functional, cell-based
# MDA-MB-231 [4] = test: Cell cycle arrest in human drug-tolerant MDA-MB-231/lapatinib cells assessed as accumulation at G0-G1phase at 20 uM incubated for 24 hrs by PI staining based flow cytometry; type: functional
# MDA-MB-231 [5] = test: Inhibition of Wnt/beta-Catenin signaling in drug-tolerant human MDA-MB-231/lapatinib cells assessed as reduction in MMP7 mRNA level at 20 uM incubated for 24 hrs by qRT-PCR analysis; type: tissue-based
# [6] = Resistant factor, ratio of IC50 for antiproliferative activity against drug-tolerant human MDA-MB-231 cells to IC50 for human MDA-MB-231 cells; type: functional
# MDA-MB-231 [7] = test: Induction apoptosis in MDA-MB-231/ lapatinib cells assessed as apoptotic cells at 20 uM measured after 24 hrs by propidium iodide staining based flow cytometric analysis; type: functional, cell-based; conditions: Homo sapiens
# [8] = molecular target: T2, Epidermal growth factor receptor (Homo sapiens, UniProt P00533); test: Inhibition of human EGFR in human drug-tolerant MDA-MB-231/lapatinib cells assessed as inhibition of phosphorylation Akt1/2/3 at Ser473 of measured after 24 hrs by Western blot analysis; conditions: dose 5-20 µM
# T2 sequence (P00533 whole entry): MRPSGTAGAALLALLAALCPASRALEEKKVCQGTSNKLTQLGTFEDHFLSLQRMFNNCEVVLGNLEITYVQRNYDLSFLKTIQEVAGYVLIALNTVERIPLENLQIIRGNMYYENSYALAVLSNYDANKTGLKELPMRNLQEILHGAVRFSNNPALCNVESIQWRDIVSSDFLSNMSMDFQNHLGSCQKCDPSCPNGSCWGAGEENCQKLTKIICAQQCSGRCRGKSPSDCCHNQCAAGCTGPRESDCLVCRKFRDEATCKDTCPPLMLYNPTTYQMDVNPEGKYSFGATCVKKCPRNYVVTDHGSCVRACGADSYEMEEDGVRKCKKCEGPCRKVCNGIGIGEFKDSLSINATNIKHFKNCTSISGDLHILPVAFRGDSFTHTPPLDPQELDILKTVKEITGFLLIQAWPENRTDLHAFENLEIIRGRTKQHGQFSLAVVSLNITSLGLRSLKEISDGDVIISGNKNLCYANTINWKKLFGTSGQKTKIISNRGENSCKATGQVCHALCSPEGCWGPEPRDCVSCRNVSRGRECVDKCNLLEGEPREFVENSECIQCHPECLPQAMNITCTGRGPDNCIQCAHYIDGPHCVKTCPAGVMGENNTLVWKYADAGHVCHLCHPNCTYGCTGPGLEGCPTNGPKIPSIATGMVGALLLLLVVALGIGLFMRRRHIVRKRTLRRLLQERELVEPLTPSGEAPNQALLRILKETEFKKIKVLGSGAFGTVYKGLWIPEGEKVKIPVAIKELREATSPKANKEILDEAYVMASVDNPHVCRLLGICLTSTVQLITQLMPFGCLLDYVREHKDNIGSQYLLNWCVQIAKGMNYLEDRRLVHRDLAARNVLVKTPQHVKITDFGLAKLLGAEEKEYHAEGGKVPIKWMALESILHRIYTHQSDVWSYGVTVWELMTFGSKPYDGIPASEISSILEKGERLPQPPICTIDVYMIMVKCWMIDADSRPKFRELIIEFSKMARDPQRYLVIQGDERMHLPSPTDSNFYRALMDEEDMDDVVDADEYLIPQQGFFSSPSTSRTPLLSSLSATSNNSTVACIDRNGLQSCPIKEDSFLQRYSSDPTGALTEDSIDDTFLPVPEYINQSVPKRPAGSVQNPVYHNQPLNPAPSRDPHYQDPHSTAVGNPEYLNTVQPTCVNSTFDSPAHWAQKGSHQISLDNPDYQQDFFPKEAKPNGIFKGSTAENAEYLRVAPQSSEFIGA
# MDA-MB-231 [9] = test: Inhibition of cell invasion in human MDA-MB-231/lapatinib cells at 20 uM; type: functional
# MDA-MB-231 [10] = test: Inhibition of colony formation in human drug-tolerant MDA-MB-231/lapatinib cells at 5 uM measured after 24 hrs; type: functional
# MDA-MB-231 [11] = test: Inhibition of cell stemness in drug-tolerant human MDA-MB-231/lapatinib cells assessed as inhibition of ALDH1A1 expression at 20 uM after 24 hrs by flow cytometry; type: functional
# MDA-MB-231 [12] = test: Inhibition of cell stemness in human drug-tolerant MDA-MB-231/lapatinib cells assessed as inhibition of Kif4 expression at 20 uM after 24 hrs by qRT-PCR analysis; type: functional, cell-based
# [13] = molecular target: T2, Epidermal growth factor receptor; test: Inhibition of human EGFR in human drug-tolerant MDA-MB-231/lapatinib cells assessed as inhibition of phosphorylation ERK1/2 at T202/Y204 of measured after 24 hrs by Western blot analysis; conditions: dose 5-20 µM
# MDA-MB-231 [14] = test: Inhibition of Wnt/beta-Catenin signaling in drug-tolerant human MDA-MB-231/lapatinib cells assessed as reduction in cyclin D1 mRNA level at 20 uM incubated for 24 hrs by qRT-PCR analysis
# MDA-MB-231 [15] = test: Antiproliferative activity against human MDA-MB-231 cells assessed as inhibition of cell growth measured after 72 hrs by MTT assay; type: functional, cell-based; conditions: MDA-MB-231, 72 h
# MDA-MB-231 [16] = test: Inhibition of Wnt/beta-Catenin signaling in drug-tolerant human MDA-MB-231/lapatinib cells assessed as reduction in S100A4 mRNA level at 20 uM incubated for 24 hrs by qRT-PCR analysis
# MDA-MB-231 [17] = test: Antiproliferative activity against drug-tolerant human MDA-MB-231/lapatinib cells assessed as CD44+/CD24- cells measured at 20 uM after 24 hrs by MTT assay; type: functional
# MDA-MB-231 [18] = test: Cell cycle arrest in human MDA-MB-231 cells assessed as accumulation at G0-G1phase at 20 uM incubated for 24 hrs by PI staining based flow cytometry; type: functional
# MDA-MB-231 [19] = test: Inhibition of cell stemness in human drug-tolerant MDA-MB-231/lapatinib cells assessed as inhibition of OCT4 expression at 20 uM after 24 hrs by qRT-PCR analysis; type: functional, cell-based
# MDA-MB-231 [20] = test: Antiproliferative activity against human drug tolerant MDA-MB-231/lapatinib cells assessed as inhibition of cell growth in measured after 72 hrs by MTT assay; type: functional, cell-based; conditions: MDA-MB-231, 72 h
# MDA-MB-231 [21] = test: Inhibition of Wnt/beta-Catenin signaling in drug-tolerant human MDA-MB-231/lapatinib cells assessed as increase in nuclear expression of p-beta-catenin level at 20 uM incubated for 24 hrs by Western blot analysis
# [22] = molecular target: T2, Epidermal growth factor receptor; test: Inhibition of human EGFR phosphorylation in human drug-tolerant MDA-MB-231/lapatinib cells measured after 24 hrs by Western blot analysis; conditions: dose 5-20 µM
# MCF7 = test: Antiproliferative activity against human MCF7 cells assessed as inhibition of cell growth measured after 72 hrs by MTT assay; type: functional, cell-based; conditions: MCF7, 72 h
# [23] = molecular target: T2, Epidermal growth factor receptor; test: Inhibition of exogenous EGFR (unknown origin)
# MDA-MB-231 [24] = test: Antiproliferative activity against drug-tolerant human MDA-MB-231/lapatinib cells assessed as CD44-positive cells measured after 24 hrs by MTT assay; type: functional, cell-based; conditions: MDA-MB-231, 24 h
# [25] = molecular target: T2, Epidermal growth factor receptor; test: Inhibition of human EGFR phosphorylation in human MDA-MB-231 cells measured after 24 hrs by Western blot analysis; type: cell-based; conditions: dose 5-20 µM
# MDA-MB-231 [26] = test: Inhibition of Wnt/beta-Catenin signaling in drug-tolerant human MDA-MB-231/lapatinib cells assessed as reduction in p-GSK3beta level at 20 uM incubated for 24 hrs by Western blot analysis
# MDA-MB-231 [27] = test: Inhibition of cell stemness in human drug-tolerant MDA-MB-231/lapatinib cells assessed as inhibition of CD44+/CD24- expression at 20 uM after 24 hrs by flow cytometry analysis; type: functional
# [28] = molecular target: T2, Epidermal growth factor receptor; test: Inhibition of human EGFR in human MDA-MB-231 cells assessed as inhibition of phosphorylation Akt1/2/3 at Ser473 of measured after 24 hrs by Western blot analysis; type: cell-based; conditions: dose 5-20 µM
# MDA-MB-231 [29] = test: Induction of apoptosis in drug-tolerant human MDA-MB-231 cells/lapatinib cells assessed as apoptotic rate at 20 uM measured after 24 hrs by flow cytometry; type: functional
# MDA-MB-231 [30] = test: Inhibition of cell stemness in human drug-tolerant MDA-MB-231/lapatinib cells assessed as inhibition of SOX-2 expression at 20 uM after 24 hrs by qRT-PCR analysis; type: functional, cell-based
# MDA-MB-231 [31] = test: Inhibition of cell stemness in drug-tolerant human MDA-MB-231/lapatinib cells assessed as inhibition of Jagged expression at 20 uM after 24 hrs by flow cytometry; type: functional, cell-based
# [32] = Octanol/water partition coefficient, log P of the compound by shake flask method based thermodynamic solubility assay; type: physicochemical
# MDA-MB-231 [33] = test: Inhibition of Wnt/beta-Catenin signaling in drug-tolerant human MDA-MB-231/lapatinib cells assessed as reduction in c-Myc mRNA level at 20 uM incubated for 24 hrs by qRT-PCR analysis
# [34] = molecular target: T2, Epidermal growth factor receptor; test: Inhibition of human EGFR in human MDA-MB-231 cells assessed as inhibition of phosphorylation ERK1/2 at T202/Y204 of measured after 24 hrs by Western blot analysis; type: cell-based; conditions: dose 5-20 µM
structure (smiles),measurement,setting,value
CC(OC(=O)CCCC(=O)N(CCS(C)(=O)=O)Cc1ccc(-c2ccc3ncnc(Nc4ccc(OCc5cccc(F)c5)c(Cl)c4)c3c2)o1)c1cc2c(o1)C(=O)c1ccccc1C2=O (stereo unspecified),inhibition,MDA-MB-231 [1],Active
same,IC50,HUVEC,63300 nM
same,IC50,[2],135 nM
same,inhibition,MDA-MB-231 [3],Active
same,Activity,MDA-MB-231 [4],Active
same,inhibition,MDA-MB-231 [5],Active
same,Ratio IC50,[6],0.82
same,Activity,MDA-MB-231 [7],Active
same,inhibition,[8],Dose-Dependent Effect
same,inhibition at 20 µM,MDA-MB-231 [9],77.3%
same,inhibition at 5 µM,MDA-MB-231 [10],10.9%
same,inhibition at 20 µM,MDA-MB-231 [11],71.2%
same,inhibition,MDA-MB-231 [12],Active
same,inhibition,[13],Dose-Dependent Effect
same,inhibition,MDA-MB-231 [14],Active
same,IC50,MDA-MB-231 [15],2040 nM
same,inhibition,MDA-MB-231 [16],Active
same,inhibition at 20 µM,MDA-MB-231 [17],52.2%
same,Activity,MDA-MB-231 [18],Active
same,inhibition,MDA-MB-231 [19],Active
same,IC50,MDA-MB-231 [20],1690 nM
same,inhibition,MDA-MB-231 [21],Active
same,inhibition,[22],Dose-Dependent Effect
same,IC50,MCF7,3860 nM
same,IC50,[23],7.36 nM
same,IC50,MDA-MB-231 [24],2030 nM
same,inhibition,[25],Dose-Dependent Effect
same,inhibition,MDA-MB-231 [26],Active
same,inhibition at 20 µM,MDA-MB-231 [27],2.03%
same,inhibition,[28],Active
same,Activity,MDA-MB-231 [29],Active
same,inhibition,MDA-MB-231 [30],Active
same,inhibition,MDA-MB-231 [31],Active
same,logP,[32],2.15
same,inhibition,MDA-MB-231 [33],Active
same,inhibition,[34],Active
